Test results from patent publication US20260109674A1, “ALLOSTERIC MODULATION OF MUSCARINIC ACETYLCHOLINE RECEPTOR EFFICACY” (The University of Toledo, priority 2022, published 2026).
Read-outs that look alike come from different tables or passages of the source.

Tests used:
[1] = molecular target: T1, M1 muscarinic receptors expressed in CHO cells (Homo sapiens, UniProt P11229); experiment: [3H]-arachidonic acid release screen with and without ACh and modulator; assay type: cell-based; conditions: for Modulation of ACh activity (in words): [3H]AA release, modulator 10 μM
T1 construct: expressed in transfected cells; host or cells: CHO (CHO-hM1, stably transfected)
T1 sequence (P11229 1-460): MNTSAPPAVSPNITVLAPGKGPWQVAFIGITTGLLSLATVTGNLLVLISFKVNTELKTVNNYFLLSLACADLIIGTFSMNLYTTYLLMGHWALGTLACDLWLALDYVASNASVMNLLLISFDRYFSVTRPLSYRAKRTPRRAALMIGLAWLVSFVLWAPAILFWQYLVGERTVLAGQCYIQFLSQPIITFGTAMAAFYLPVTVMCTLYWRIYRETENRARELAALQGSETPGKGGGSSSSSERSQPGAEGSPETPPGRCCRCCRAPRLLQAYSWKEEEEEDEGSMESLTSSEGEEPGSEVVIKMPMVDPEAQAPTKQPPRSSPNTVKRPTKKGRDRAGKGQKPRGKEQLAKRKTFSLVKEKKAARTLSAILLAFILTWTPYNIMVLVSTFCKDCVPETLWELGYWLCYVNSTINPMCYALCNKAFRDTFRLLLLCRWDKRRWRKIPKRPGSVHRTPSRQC
Protocol: CHO cells expressing human M1 muscarinic receptors were cultured at 37° C. in a 5% CO2 atmosphere in F12 medium supplemented with 5% fetal bovine serum, 100 units/mL penicillin, and 100 μg/mL streptomycin.
Measurement of [^3H]AA release was performed. Stably transfected CHO-hM1 or CHO-hM3 cells were seeded on 24-well plates (Greiner Bio-One GmbH, Frickenhausen, Germany) at a density of 5.0×10^4 cells/well in 0.5 ml of F-12 medium. Cells were incubated until they attached (approximately 3 h), followed by the addition of [^3H]AA to a final concentration of 0.05 μCi of [^3H]AA per well. The cells were then grown for 16 to 20 h before the assay was performed. [^3H]AA release was measured in Eagle's basal medium with 20 mM HEPES and 2 mg/ml fatty acid-free bovine serum albumin (EM-BSA). Cells were rinsed twice with EM-BSA, followed by the addition of EM-BSA media containing experimental agents and incubated for 1 h at 37° C. The assay was terminated by aspiration of the media, and the amount of [^3H]AA released was determined by liquid scintillation counting (Beckman-Coulter LS6500).
For some assays, pretreatment with phenoxybenzamine (POB) was employed, as indicated, to reduce the number of available receptors per cell. Stock POB was made up at 10 mM in ethanol and stored at −20° C. Each well was pretreated with 0.5 ml of the appropriate concentration in PBS with 1 mM CaCl2 and 1 mM MgCl2 (PBS++) for 30 min at 37° C., followed by 5 washes with PBS++. After pretreatment, the normal protocol was followed as above.
Tabulated [^3H]AA release data are represented as a fraction of maximal release in the presence of 100 μM ACh or as the fraction of release elicited by the appropriate concentration of ACh alone, as indicated dose-response curves were normalized to the maximal response of ACh without allosteric ligand. Some response curves were analyzed using the empirical four-parameter equation: […]
Disintegration per minute (DPM) values for a single compound were obtained in triplicate, and each compound was evaluated on three separate 24-well plates. The mean values for each condition from each of the three 24-well plates were used for the statistical analysis. The baseline mean was subtracted from each value, then normalized to the mean response produced by 100 μM ACh (set at 1.0). Statistical analyses were completed on the normalized values via one-way repeated measures ANOVA with Tukey's post hoc test. Statistically significant differences are noted as follows: *, p<0.05; **, p<0.01; ***, p<0.001.

[2] = test system: wild-type zebrafish larvae; experiment: Maximum tolerated concentration (MTC) determination in zebrafish larvae; assay type: in vivo, Danio rerio
Protocol: Determination of maximum tolerated concentration was completed by placing 5 days post fertilization (dpf) wild-type zebrafish larvae in a 24 well plate at 6 fish per well, and one compound concentration per well. […] Death was determined by the absence of heartbeat. Additional endpoints were used to assess toxicity at non-lethal concentrations such as startle capacity (poke stimulus), abnormalities in swimming behavior (loss of dorsoventral balance), and gross morphological deformities (bent body). […] The MTC determination was used to select three doses of each compound (low, medium, high dose) to be used in behavioral assays.

[3] = test system: wild-type zebrafish larvae; experiment: General locomotor assay in zebrafish larvae (locomotor activity, repetitive behaviors); assay type: in vivo, Danio rerio; conditions: for Angular Velocity / Total Distance Moved / Variance of Turn Angle: Table 3, tested at 1 μM due to toxicity at 10 μM (footnote a); for response vs control in vivo at 10 µM: Danio rerio, Table 5, 10 μM concentration, N = 12
Protocol: Five days post fertilization (dpf) zebrafish larvae were exposed to a range of nonlethal concentrations of the compounds in a 24-well plate with appropriate controls. The movement of each larval zebrafish was monitored with the Noldus behavior recording system (Noldus Information Technology, Leesburg VA) and quantified using EthoVision® XT 15 software (Noldus Information Technology, Leesburg VA). The plate was immediately placed in the incubator for a 30-minute exposure period. After 30 minutes, the plate was transferred to the Noldus system and swimming behavior was recorded in 100% light for 30 minutes to measure spontaneous swimming behavior. The light was switched off for 10 minutes (dark period) and then switched on for 10 minutes (light period), which was then repeated for two additional cycles. In total, the larvae were exposed to three cycles of alternating 10-minute dark and light periods (100% darkness-to-100% light). […]
All data for exposure and the behavioral end points were analyzed by one-way ANOVA (factor: drug conc) followed by a Dunnett's multiple comparisons test for post hoc significance between drug concentration and control group. Statistically significant differences are noted as follows: *, p<0.05; **, p<0.01; ***, p<0.001.

[4] = after 24-hour exposure, Table 3
[5] = 10 μM modulator, 0.1 μM ACh, Table 1
[6] = 10 μM modulator, 100 μM ACh, Table 1

CCCCc1oc2ccccc2c1C(=O)c1cc(I)c(OCC[N+](CC)(CC)CC)c(I)c1 [Compound 2, N-ethylamiodarone, reference compound]
Ratio of response of ACh with modulator to response of ACh alone, 0.1 μM ACh [1]: 0.17 ± 0.04 | Ratio of response of ACh with modulator to response of ACh alone, 100 μM ACh [1]: 0.50 ± 0.03 | Stimulation of [3H]AA release, No ACh (fraction of stimulation above the control) ([1]; 10 μM modulator, Table 1): 0.04 ± 0.02 | Modulation of ACh activity (in words) [1]: NAM of mAChR efficacy | Maximum Tolerated Concentration [2, 4]: 1 µM | Angular Velocity [3]: 128.9 ± 18.5 % of control | Total Distance Moved [3]: 95.8 ± 11.0 % of control | Variance of Turn Angle [3]: 97.6 ± 10.3 % of control

CCCCc1oc2ccccc2c1C(=O)c1cc(I)c(O)c(I)c1 [Compound 3, reference compound]
Ratio of response of ACh with modulator to response of ACh alone, 0.1 μM ACh [1, 5]: 0.42 ± 0.00 | Ratio of response of ACh with modulator to response of ACh alone, 100 μM ACh [1, 6]: 0.81 ± 0.07 | Stimulation of [3H]AA release, No ACh (fraction of stimulation above the control) ([1]; 10 μM modulator, Table 1): 0.02 ± 0.00 | Modulation of ACh activity (in words) [1]: completely inactive | Maximum Tolerated Concentration [2, 4]: 3 µM | Angular Velocity [3]: 101.8 ± 19.2 % of control | Total Distance Moved [3]: 145.4 ± 21.7 % of control | Variance of Turn Angle [3]: 93.4 ± 9.4 % of control

CCCCc1oc2ccccc2c1C(=O)c1ccc(O)cc1 [Compound 4, reference compound]
Ratio of response of ACh with modulator to response of ACh alone, 0.1 μM ACh [1]: 0.49 ± 0.09 | Ratio of response of ACh with modulator to response of ACh alone, 100 μM ACh [1]: 0.72 ± 0.04 | Stimulation of [3H]AA release, No ACh (fraction of stimulation above the control) ([1]; 10 μM modulator, Table 1): 0.03 ± 0.02 | Modulation of ACh activity (in words) [1]: completely inactive | Maximum Tolerated Concentration [2, 4]: 0.3 µM | Angular Velocity [3]: 105.7 ± 14.8 % of control | Total Distance Moved [3]: 56.7 ± 9.3 % of control | Variance of Turn Angle [3]: 115.8 ± 12.4 % of control

COc1c(Cl)cc(CN2C(=O)C(=O)c3ccccc32)cc1Cl [Compound 8e, 1-(3,5-dichloro-4-methoxybenzyl)indoline-2,3-dione]
Ratio of response of ACh with modulator to response of ACh alone, 0.1 μM ACh [1, 5]: 2.13 ± 0.11 | Ratio of response of ACh with modulator to response of ACh alone, 100 μM ACh [1, 6]: 1.28 ± 0.07 | Stimulation of [3H]AA release, No ACh (fraction of stimulation above the control) ([1]; 10 μM modulator, Table 1): 0.08 ± 0.01 | Maximum Tolerated Concentration [2, 4]: 100 µM

COc1ccc(CN2C(=O)C(=O)c3ccccc32)cc1Cl [Compound 8f, 1-(3-chloro-4-methoxybenzyl)indoline-2,3-dione]
Ratio of response of ACh with modulator to response of ACh alone, 0.1 μM ACh [1, 5]: 1.49 ± 0.03 | Ratio of response of ACh with modulator to response of ACh alone, 100 μM ACh [1, 6]: 1.13 ± 0.04 | Stimulation of [3H]AA release, No ACh (fraction of stimulation above the control) ([1]; 10 μM modulator, Table 1): 0.08 ± 0.02 | Maximum Tolerated Concentration [2, 4]: 10 µM

COc1c(F)cc(CN2C(=O)C(=O)c3ccccc32)cc1F [Compound 8g, 1-(3,5-difluoro-4-methoxybenzyl)indoline-2,3-dione]
Ratio of response of ACh with modulator to response of ACh alone, 0.1 μM ACh [1, 5]: 1.33 ± 0.03 | Ratio of response of ACh with modulator to response of ACh alone, 100 μM ACh [1, 6]: 0.94 ± 0.02 | Stimulation of [3H]AA release, No ACh (fraction of stimulation above the control) ([1]; 10 μM modulator, Table 1): 0.03 ± 0.01 | Maximum Tolerated Concentration [2, 4]: 30 µM

COc1ccc(CN2C(=O)C(=O)c3ccccc32)cc1F [Compound 8h, 1-(3-fluoro-4-methoxybenzyl)indoline-2,3-dione]
Ratio of response of ACh with modulator to response of ACh alone, 0.1 μM ACh [1, 5]: 1.17 ± 0.02 | Ratio of response of ACh with modulator to response of ACh alone, 100 μM ACh [1, 6]: 1.03 ± 0.01 | Stimulation of [3H]AA release, No ACh (fraction of stimulation above the control) ([1]; 10 μM modulator, Table 1): 0.04 ± 0.01 | Maximum Tolerated Concentration [2, 4]: 30 µM

O=C1C(=O)N(Cc2cc(F)c(F)c(F)c2)c2ccccc21 [Compound 8i, 1-(3,4,5-trifluorobenzyl)indoline-2,3-dione]
Ratio of response of ACh with modulator to response of ACh alone, 0.1 μM ACh [1, 5]: 1.39 ± 0.06 | Ratio of response of ACh with modulator to response of ACh alone, 100 μM ACh [1, 6]: 1.05 ± 0.02 | Stimulation of [3H]AA release, No ACh (fraction of stimulation above the control) ([1]; 10 μM modulator, Table 1): 0.07 ± 0.01 | Maximum Tolerated Concentration [2, 4]: 10 µM

COc1cc(CN2C(=O)C(=O)c3ccccc32)cc(OC)c1OC [Compound 8k, 1-(3,4,5-trimethoxybenzyl)indoline-2,3-dione]
Ratio of response of ACh with modulator to response of ACh alone, 0.1 μM ACh [1, 5]: 1.37 ± 0.08 | Ratio of response of ACh with modulator to response of ACh alone, 100 μM ACh [1, 6]: 0.83 ± 0.01 | Stimulation of [3H]AA release, No ACh (fraction of stimulation above the control) ([1]; 10 μM modulator, Table 1): 0.03 ± 0.00 | Maximum Tolerated Concentration [2, 4]: 30 µM

O=C1C(=O)N(Cc2ccc(O)cc2)c2ccccc21 [Compound 10, 1-(4-hydroxybenzyl)indoline-2,3-dione]
Ratio of response of ACh with modulator to response of ACh alone, 0.1 μM ACh [1, 5]: 1.60 ± 0.10 | Ratio of response of ACh with modulator to response of ACh alone, 100 μM ACh [1, 6]: 0.92 ± 0.06 | Stimulation of [3H]AA release, No ACh (fraction of stimulation above the control) ([1]; 10 μM modulator, Table 1): 0.01 ± 0.01 | Maximum Tolerated Concentration [2, 4]: 10 µM

CCCCc1oc2ccc(NS(C)(=O)=O)cc2c1C(=O)c1ccc(OCCCN(CCCC)CCCC)cc1 [Dronedarone, reference compound]
Ratio of response of ACh with modulator to response of ACh alone, 0.1 μM ACh [1, 5]: 0.25 ± 0.05 | Ratio of response of ACh with modulator to response of ACh alone, 100 μM ACh [1, 6]: 0.75 ± 0.07 | Stimulation of [3H]AA release, No ACh (fraction of stimulation above the control) ([1]; 10 μM modulator, Table 1): 0.08 ± 0.01 | Maximum Tolerated Concentration [2, 4]: 10 µM

COc1c(I)cc(CN2C(=O)C(=O)c3cc(OC(F)(F)F)ccc32)cc1I [GK-1-44]
Ratio of response of ACh with modulator to response of ACh alone, 0.1 μM ACh ([1]; 10 μM modulator, 0.1 μM ACh, Table 4, N = 4-5): 2.47 ± 0.22 | Ratio of response of ACh with modulator to response of ACh alone, 100 μM ACh ([1]; 10 μM modulator, 100 μM ACh, Table 4, N = 4-5): 1.67 ± 0.11 | Stimulation of [3H]AA release, No ACh (fraction of stimulation above the control) ([1]; 10 μM modulator, Table 4, N = 4-5): 0.37 ± 0.04 | Maximum Tolerated Concentration ([2]; after 24-hour exposure in separate experiments, Table 5): 10 µM | response vs control in vivo at 10 µM ([3]; read-out: Angular Velocity): 114 ± 19.2% | response vs control in vivo at 10 µM ([3]; read-out: Total Distance Moved): 78.5 ± 11.1% | response vs control in vivo at 10 µM ([3]; read-out: Variance of Turn Angle): 105 ± 10.6%
